Reference: article PMC5326799, “Discovery of Compounds that Positively Modulate the High Affinity Choline Transporter” (Frontiers in Molecular Neuroscience, 2017)
Entries after “also recorded” stand apart in the source; their conditions may differ. Where two headings read alike, the source gives them in different places.

Tests used:
[1] = biological target: T1, high affinity choline transporter (CHT) (Homo sapiens, UniProt Q9GZV3); assay: Radiometric [3H]Choline uptake assay (scintillation proximity) in HEK cells expressing CHT; format: cell-based; conditions: for CHT modulator classification in radiometric assay: single point 1 and 10 μM, actives in 10-point dose response; for 3H-choline uptake % effect 1 μM: 1 μM compound; for 3H-choline uptake % effect 1 μM / 3H-choline uptake % effect 10 μM: 100% = 10 μM Staurosporine, 0% = DMSO; for 3H-choline uptake % effect 10 μM: 10 μM compound
T1 construct: expressed in transfected cells; host or cells: HEK-293, lentiviral transduction, single-cell clone CHT-WT4
T1 sequence (Q9GZV3 1-580): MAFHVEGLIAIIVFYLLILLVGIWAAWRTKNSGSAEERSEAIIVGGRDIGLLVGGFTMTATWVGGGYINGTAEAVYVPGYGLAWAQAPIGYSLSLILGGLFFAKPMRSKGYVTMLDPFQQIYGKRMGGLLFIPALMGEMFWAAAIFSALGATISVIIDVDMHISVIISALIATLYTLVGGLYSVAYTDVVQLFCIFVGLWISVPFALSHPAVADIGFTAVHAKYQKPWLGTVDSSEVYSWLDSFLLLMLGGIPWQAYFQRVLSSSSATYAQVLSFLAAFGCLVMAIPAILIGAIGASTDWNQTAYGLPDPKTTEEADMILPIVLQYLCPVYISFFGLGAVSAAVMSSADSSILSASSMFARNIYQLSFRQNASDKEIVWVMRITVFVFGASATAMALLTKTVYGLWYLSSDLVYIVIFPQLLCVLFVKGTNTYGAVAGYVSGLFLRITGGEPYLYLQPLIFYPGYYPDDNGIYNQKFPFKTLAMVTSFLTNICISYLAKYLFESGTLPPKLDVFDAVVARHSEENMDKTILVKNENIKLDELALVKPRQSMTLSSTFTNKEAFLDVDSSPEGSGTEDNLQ
Description: Uptake of [^3H]Choline (American Radiochemicals; ART 0197; 1,000 Ci/vial; Specific Activity 60–90 Ci/mmol) was measured in HEK cells expressing the high affinity choline transporter (CHT), clone WT4. Cells were plated at 50,000 cells /well in 200 μL culture media on a PDL coated Cytostar-T 96 well plate (Perkin Elmer) 24 h prior to assay. On the day of assay, following two washes and a 30 min pre-incubation at 37°C in 50 μL Na(−) free buffer (0.54 mM KCl, 1.3 mM CaCl2, 0.53 mM MgCl2, 0.4 mM MgSO4, 0.37 mM KH2PO4, 240 mM Sucrose, 4.4 mM Tris-phosphate, 5.5 mM Glycine, 5.6 mM D-Glucose; pH 6.5 with KOH), 25 μL 4X control or test compounds in Na(−) buffer were added to the cells. […] Final DMSO concentration was 0.25%. Following a 30 min incubation at 37°C, 25 μL [^3H]Choline diluted to 320 nM (80 nM final concentration) was added in Na(+) buffer (0.54 mM KCl, 1.3 mM CaCl2, 0.53 mM MgCl2, 0.4 mM MgSO4, 0.37 mM KH2PO4, 138 mM NaCl, 0.28 mM Na2HPO4, 5.5 mM Glycine, 5.6 mM D-Glucose; pH 6.5 with KOH). Plates were sealed with TopSeals (Perkin Elmer) and incubated in darkness for 3 h at room temperature before reading using a Wallac Microbeta, 1 min/well.
(§1) A preponderance of literature precedent for measuring high affinity choline uptake (HACU) utilizes a radiometric assay to measure [^3H]Choline transport in preparations. […] A number of parameters were assessed in assay development including cell seeding density, time of assay post-seeding, plate coating, buffer composition, read time and choline concentration.

CHT [2] = biological target: T2, CHT (Homo sapiens, UniProt Q9GZV3); assay: cell-based
T2 sequence (Q9GZV3 1-580): T1 sequence (Q9GZV3 1-580)

CHT [3] = biological target: T2, CHT; conditions: for D9-choline uptake % effect 1 μM: 1 μM compound; for D9-choline uptake % effect 1 μM / D9-choline uptake % effect 10 μM: HEK293 CHT-WT4, DMSO negative control, 10 μM STS positive control; for D9-choline uptake % effect 10 μM: 10 μM compound
CHT [4] = biological target: T2, CHT; assay: Live cell anti-FLAG immunolabeling of CHT cell surface localization in CHT-WT4 cells; format: cell-based; parameters: expressed in transfected cells; host or cells: HEK-293, lentiviral transduction, single-cell clone CHT-WT4; conditions: 1 or 10 μM for 1 h, qualitative observations
Description: Media was removed and cells were washed once with HBSS (+/+). 1 μg/mL Anti-FLAG antibody (F3165, Sigma) was diluted in HBSS (+/+) and added to the cellular monolayer for 30 mins. After incubation, cells were washed three times with HBSS (+/+) followed by incubation with 1:5,000 AF488 labeled secondary antibody (LifeTech) diluted in HBSS (+/+) for 30 min. After three washes, cells were fixed with 4% paraformaldehyde in HBSS (+/+) for 15 min. Nuclei were counterstained with the nuclear dye Hoechst. All images were captured and analyzed on an epifluorescent microsope or Cellomics platform.
Thus, understanding compound effects on CHT density and activation state in the synaptic membrane may aid interpretation of the effects on cholinergic neurotransmission. Conventional methods such as cell surface biotinylation present challenges in terms of the requirement of large quantities of cells and low throughput. […] Our CHT overexpression construct contains a FLAG tag on the N-terminus which we sought to utilize with antibody detection in non-permeabilized cells. […] We proceeded to investigate the effect of compound treatment in more detail. Cells were incubated with compounds at 1 or 10 μM for 1 h before immunolabeling and visualization.

SK-N-FI cell line = assay: [3H]Choline uptake in untransformed SK-N-FI cell line; format: cell-based; conditions: 1 μM HC-3, 10 μM STS
Text: (§2) Supplementary file Image1.JPEG: Supplementary Figure 1 [^3H] […] Click here for additional data file.

[5] = biological target: T1, high affinity choline transporter (CHT); assay: Radiometric [3H]Choline uptake assay (scintillation proximity) in HEK cells expressing CHT; format: cell-based; conditions: HEK293, read-out: % inhibition of [3H]Choline uptake by HC-3, 1 μM
CHT [6] = biological target: T2, CHT; assay: SURFE2R solid supported membrane (SSM) electrophysiology on CHT-WT4 membrane fragments; format: biochemical; parameters: expressed in transfected cells; host or cells: HEK-293, lentiviral transduction, single-cell clone CHT-WT4
Description: A single cell clone of HEK293 overexpressing CHT (CHT-WT4) cells was used to generate membrane fragments to assess on the SURFE^2R platform. Cells were grown to 80% confluence and harvested. The membrane fraction was collected by ultracentrifugation and the plasma membranes were isolated by density gradient centrifugation (Schulz et al., [2008]).
All experiments were performed on the SURFE^2R N1 device and the matching N1 sensor blanks (Nanion Technologies GmbH, Munich). The sensor blanks include a 3 mm diameter gold surface inside a small well coated by incubating 50 μL of 0.5 mM 1-octadecanethiol dissolved in isopropanol for 30 min, rinsed once with isopropanol and twice with water (ddH2O) and dried for 30 min at room temperature.
7.5 μg/μL DPhPC (Avanti Polar Lipids) was dissolved in n-Decane. 1.5 μL were added onto the thiol-coated gold surface. Immediately, 80 μL of potassium buffer was added carefully. The CHT membrane preparation was diluted 1:10 with potassium buffer and sonicated. Eight microliter were added directly onto the SSM by submerging the pipette into the buffer and the sensors were centrifuged for 30 min at 2,200 × g. The quality of the SSM was controlled by determination of conductance σ and capacitance C. The SURFE^2R N1 device includes default functions to perform these measurements. Sensors should have a conductance below 3 nS and capacitance below 20 nF.
Prepared sensors were inserted into the faraday cage of the SURFE^2R N1 device and buffers applied via its automatic perfusion system, allowing rapid buffer exchange in a continuous liquid flow. The following buffer addition sequence was used for all experiments: Sodium buffer was applied for 2 s with a flow rate of 200 μl/s to establish a sodium gradient over the membrane. […] During those 6 s the current response was recorded. […]
Raw data were exported as ASCII files, analysis was performed using the scientific graphing and data analysis program IGOR Pro 6 (WaveMetrics, Portland, USA). The evaluated peak currents were determined using a peak detection algorithm. […]

[7] = biological target: high affinity choline transporter (CHT); parameters: method as in earlier work; conditions: ref Okuda and Haga, 2000, Okuda et al., cited from earlier work
SH-SY5Y cell line = assay: [3H]Choline uptake in untransformed SH-SY5Y cell line; format: cell-based; conditions: 1 μM HC-3, 10 μM STS
Text: as §2

SH-SY5Y cells = assay: Radiometric CHT transport in SH-SY5Y cell backgrounds; format: cell-based; conditions: potentiation could not be demonstrated
Description: as §1

[8] = EC50 estimate, [3H]Choline uptake (positive modulators), CHT-WT4 cells, 10-point dose response
[9] = PAM compounds, 10-point dose response, HEK293 CHT-WT4, n.d. = not detected, read-out: 3H-choline uptake IC50 or EC50
[10] = 3H-choline uptake IC50 or EC50(M), PAM compounds, 10-point dose response, HEK293 CHT-WT4, n.d. = not detected
[11] = inhibitor/NAM compounds, 10-point dose response, HEK293 CHT-WT4, read-out: 3H-choline uptake IC50 or EC50

O=C(CC1=CCCCC1)Nc1ccnc2ccccc12 [Compound 1]
EC50 [1, 8]: 3e-07 M
EC50 [1, 9]: 2.75e-07 M
CHT modulator classification in radiometric assay [1]: positive allosteric CHT modulators

O=C(Cn1c(=O)oc2ccccc21)Nc1ccnc2ccccc12 [Compound 2]
EC50 [1, 8]: 4e-07 M
EC50 [1, 9]: 4.16e-07 M
CHT modulator classification in radiometric assay [1]: positive allosteric CHT modulators

NC(=O)N1C(=O)C(C(=O)Cc2ccccc2)c2cc(F)ccc21 (centres unmarked) [Compound 3]
EC50 [1, 10]: 4.51e-06 M
EC50 [1, 8]: 4.5e-06 M
CHT modulator classification in radiometric assay [1]: positive allosteric CHT modulators

O=C(NCc1ccc(Cl)cc1)c1ccc2snc(N3CCNCC3)c2c1 [Compound 4]
IC50 (CHT [2]): 3.13 µM
D9-choline uptake % effect 1 μM (CHT [3]): 12.3%
D9-choline uptake % effect 10 μM (CHT [3]): 118.1%
IC50 [1, 11]: 1.54 µM
CHT modulator classification in radiometric assay [1]: negative allosteric modulators

O=C(NCc1ccc(Cl)cc1)c1cn2c(N3CCNCC3)nccc2n1 [Compound 5]
IC50 [1, 11]: 0.67 µM
CHT modulator classification in radiometric assay [1]: negative allosteric modulators

CNC(=O)C1CCCN1c1nc(Cc2ccccc2F)cc(Nc2cc(C3CC3)[nH]n2)n1 (centres unmarked) [Compound 6]
EC50 (CHT [2]): 2.05 µM
Effect on cell surface localization of CHT (CHT [4]): no effects; also recorded: no apparent effect
D9-choline uptake % effect 1 μM (CHT [3]): 60.8%
D9-choline uptake % effect 10 μM (CHT [3]): 91.6%
3H-choline uptake % effect 1 μM ([1]; HEK293 CHT-WT4): 3.6%
3H-choline uptake % effect 10 μM ([1]; HEK293 CHT-WT4): 23.6%

CNC(=O)C1CCC(Nc2nc(Nc3ccc(S(C)(=O)=O)cc3)ncc2C(F)(F)F)C1 (centres unmarked) [Compound 7]
EC50 (CHT [2]): 2.49 µM
Effect on cell surface localization of CHT (CHT [4]): no effects; also recorded: no apparent effect
D9-choline uptake % effect 1 μM (CHT [3]): 46.4%
D9-choline uptake % effect 10 μM (CHT [3]): 80.8%
3H-choline uptake % effect 1 μM ([1]; HEK293 CHT-WT4): −2.4%
3H-choline uptake % effect 10 μM ([1]; HEK293 CHT-WT4): 26.7%

N#Cc1c[nH]c2ncnc(N3CCC4(CC3)CNCc3ccc(C(F)(F)F)nc34)c12 [Compound 8]
EC50 (CHT [2]): 5.1 µM
Effect on cell surface localization of CHT (CHT [4]): increased cell surface localization; also recorded: distinct increase in apparent cell surface localization
D9-choline uptake % effect 1 μM (CHT [3]): 24.5%
D9-choline uptake % effect 10 μM (CHT [3]): 80.2%
3H-choline uptake % effect 1 μM ([1]; HEK293 CHT-WT4): 9.0%
3H-choline uptake % effect 10 μM ([1]; HEK293 CHT-WT4): 52.6%

Cn1ncc2nc(-c3ccnc(N)c3)nc(N3CCNCC3(C)C)c21 [Compound 9]
EC50 (CHT [2]): 5.76 µM
Effect on cell surface localization of CHT (CHT [4]): increased cell surface localization; also recorded: distinct increase in apparent cell surface localization
D9-choline uptake % effect 1 μM (CHT [3]): 30.5%
D9-choline uptake % effect 10 μM (CHT [3]): 64.0%
3H-choline uptake % effect 1 μM ([1]; HEK293 CHT-WT4): 24.4%
3H-choline uptake % effect 10 μM ([1]; HEK293 CHT-WT4): 100.0%

C[N+]1(C)CCOC(O)(c2ccc(-c3ccc(C4(O)C[N+](C)(C)CCO4)cc3)cc2)C1 (centres unmarked) [HC-3, hemicholinium-3, reference compound]
IC50 (CHT [2]): 0.0056 µM
Effect on [3H]Choline uptake (SK-N-FI cell line): No effect
Effect on cell surface localization of CHT (CHT [4]): increase in cell surface localization; also recorded: increase transporter density on the cell surface
inhibition at 1 µM ([5]; CHT-WT5 clone): ~61%
inhibition at 1 µM ([5]; CHT-WT Pool): ~69%
IC50 (CHT [6]): 0.0204 µM
Ki ([7]; Apparsundaram et al., 2001, read-out: Ki, inhibition of choline uptake): 0.001 to 0.005 µM
Effect on [3H]Choline uptake (SH-SY5Y cell line): No effect
IC50 [1]: 0.116 µM
inhibition at 1 µM ([1]; HEK293, read-out: % inhibition of [3H]Choline uptake by HC-3, 1 μM, CHT-WT4 clone): ~80%

Cc1oc2nc3c(c(NC(=O)CN4CCCC4=O)c2c1C)CCCC3 [MKC-231, coluracetam, reference compound]
Effect on cell surface localization of CHT (CHT [4]): no apparent effect
Effect on CHT current (SURFE2R) (CHT [6]; CHT-WT4 membrane preparations): not able to detect any effect
Effect on D9-choline uptake (CHT [3]; 10-point dose response): no apparent effect
Impact on CHT mediated transport, [3H]Choline uptake ([1]; CHT-WT4 cells, 10-point dose response): unable to see any impact
Impact on CHT mediated transport, [3H]Choline uptake ([1]; CHT-WT4 cells, 10-point dose response, listed as MKC231): no apparent effect

COc1ccc(C(=O)NCc2cc(C(C)C)no2)cc1OC1CCN(C)CC1 [ML-352, reference compound]
Effect on cell surface localization of CHT (CHT [4]): increase in cell surface localization; also recorded: increase transporter density on the cell surface
D9-choline uptake % effect 1 μM (CHT [3]): 96.3%
D9-choline uptake % effect 10 μM (CHT [3]): 104.1%

CN[C@@H]1C[C@H]2O[C@@](C)([C@@H]1OC)n1c3ccccc3c3c4c(c5c6ccccc6n2c5c31)C(=O)NC4 [STS, staurosporine]
Potentiation of CHT transport in SH-SY5Y cell backgrounds (SH-SY5Y cells): toxicity
EC50 (CHT [2]): 0.507 µM
Effect on [3H]Choline uptake (SK-N-FI cell line): No effect
Effect on [3H]Choline uptake (SH-SY5Y cell line): No effect
EC50 [1, 10]: 1.7e-06 M

C[N+](C)(C)CCO [choline, Choline Chloride]
EC50 (CHT [6]): 25 µM
Km ([7]; Apparsundaram et al., 2001, read-out: Km, high-affinity sodium-dependent choline uptake): ~2 µM
